This note sets out measurements from patent US20230203041A1, “ANTAGONISTS OF THE ADENOSINE A2A RECEPTOR” (AdoRx Therapeutics Limited, priority 2020, published 2023).

Experiment [1] concerns the target T1, human Adenosine A3 receptor (Homo sapiens, UniProt P0DMS8).
T1 sequence (P0DMS8 1-318): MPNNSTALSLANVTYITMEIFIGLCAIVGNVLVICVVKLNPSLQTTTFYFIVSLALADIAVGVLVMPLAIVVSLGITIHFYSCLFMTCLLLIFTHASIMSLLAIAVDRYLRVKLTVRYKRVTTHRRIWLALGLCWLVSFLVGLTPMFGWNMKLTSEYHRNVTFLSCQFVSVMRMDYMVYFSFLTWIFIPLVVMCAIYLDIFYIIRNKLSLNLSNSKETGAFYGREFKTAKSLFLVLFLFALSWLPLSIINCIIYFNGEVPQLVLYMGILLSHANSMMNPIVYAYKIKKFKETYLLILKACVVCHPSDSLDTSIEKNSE
The experiment in a line: Adenosine receptor TR-FRET binding assay (CA200645 displacement), A3. In general terms: In TR-FRET formats the signal depends on donor and acceptor labels being close together.

The target of experiment [2] is T2, human Adenosine A2a receptor (Homo sapiens, UniProt P29274).
T2 construct: expressed in transfected cells; host or cells: CHO cell membranes
The experiment in a line: Adenosine receptor TR-FRET binding assay (CA200645 displacement), A2a. The settings on record: 100 nM CA200645, CHO cell membranes, 2 hours at room temperature.

Experiment [3] addresses T3, human Adenosine A1 receptor (Homo sapiens, UniProt P30542).
T3 sequence (P30542 1-326): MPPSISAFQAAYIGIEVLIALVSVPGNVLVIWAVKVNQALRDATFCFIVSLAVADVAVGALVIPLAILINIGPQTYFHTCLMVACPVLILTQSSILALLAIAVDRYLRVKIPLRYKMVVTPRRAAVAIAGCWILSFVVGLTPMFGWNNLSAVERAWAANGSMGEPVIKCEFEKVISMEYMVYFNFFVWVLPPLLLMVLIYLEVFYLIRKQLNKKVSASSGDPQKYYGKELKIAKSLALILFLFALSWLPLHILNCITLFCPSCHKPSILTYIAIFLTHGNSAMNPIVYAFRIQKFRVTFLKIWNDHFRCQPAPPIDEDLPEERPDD
The experiment in a line: Adenosine receptor TR-FRET binding assay (CA200645 displacement), A1.

Experiment [4] addresses T4, human Adenosine A2b receptor (Homo sapiens, UniProt P29275).
T4 construct: expressed in transfected cells; host or cells: CHO cell membranes
T4 sequence (P29275 1-332): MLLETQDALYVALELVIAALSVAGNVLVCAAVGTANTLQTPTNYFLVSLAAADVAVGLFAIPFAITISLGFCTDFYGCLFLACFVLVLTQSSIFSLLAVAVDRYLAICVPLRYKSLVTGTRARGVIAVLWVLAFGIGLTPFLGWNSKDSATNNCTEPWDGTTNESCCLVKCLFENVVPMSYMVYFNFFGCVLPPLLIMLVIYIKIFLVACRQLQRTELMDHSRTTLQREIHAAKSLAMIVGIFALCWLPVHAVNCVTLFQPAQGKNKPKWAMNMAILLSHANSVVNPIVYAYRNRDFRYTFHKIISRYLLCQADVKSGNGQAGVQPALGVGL
The experiment in a line: Adenosine receptor TR-FRET binding assay (CA200645 displacement), A2b. The following applies: 30 nM CA200645, CHO cell membranes, 2 hours at room temperature.

T2 sequence (P29274 whole entry): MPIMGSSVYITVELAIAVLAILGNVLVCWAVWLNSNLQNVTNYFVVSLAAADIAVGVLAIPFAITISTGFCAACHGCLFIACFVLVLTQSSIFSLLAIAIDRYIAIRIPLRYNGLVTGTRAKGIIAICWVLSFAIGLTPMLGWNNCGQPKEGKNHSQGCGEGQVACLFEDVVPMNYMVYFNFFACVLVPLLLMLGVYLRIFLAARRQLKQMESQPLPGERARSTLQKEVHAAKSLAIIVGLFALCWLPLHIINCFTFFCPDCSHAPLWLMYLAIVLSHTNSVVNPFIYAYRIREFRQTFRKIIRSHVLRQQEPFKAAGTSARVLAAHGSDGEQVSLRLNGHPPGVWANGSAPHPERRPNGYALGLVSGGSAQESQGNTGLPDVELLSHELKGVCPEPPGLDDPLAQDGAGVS

`Cc1cc(-c2c(-c3cccc(C#N)c3)nn3ccc(C(=O)NC(C)C4(O)COC4)nc23)cc(C)n1` (centres unmarked) [Example 92.6]: the Ki in experiment [1] was > 1000 nM; in experiment [2], 0.7 nM; in experiment [3] it was 167 nM; in experiment [4], 22 nM.

In the case of `Cc1cc(-c2c(-c3cccc(C#N)c3)nn3ccc(C(=O)N4CCC5(CC4)NC(=O)NC5=O)nc23)cc(C)n1` [Example 92.7], the Ki is > 1000 nM in experiment [1], 27.6 nM in experiment [2], 158 nM in experiment [3] and 3 nM in experiment [4].

As to `Cc1cc(-c2c(-c3cccc(C#N)c3)nn3ccc(C(=O)N[C@H]4COC[C@H]4O)nc23)cc(C)n1` [Example 92.8], the inhibition constant Ki in experiment [1] was > 1000 nM; in experiment [2], 0.6 nM; in experiment [3], 70 nM; in experiment [4], 14 nM.

In the case of `Cc1cc(-c2c(-c3cccc(C#N)c3)nn3ccc(C(=O)NC[C@H]4CCC(=O)N4)nc23)cc(C)n1` [Example 92.9], the inhibition constant (Ki) in experiment [1] is > 1000 nM; in experiment [2], 1 nM; in experiment [3], 150 nM; in experiment [4], 26 nM.

Regarding `Cc1cc(-c2c(-c3cccc(C#N)c3)nn3ccc(C(=O)NCC4CCCNC4=O)nc23)cc(C)n1` (centres unmarked) [Example 92.15], the Ki in experiment [1] worked out at 599 nM; in experiment [2], 0.3 nM; in experiment [3] it was 150 nM; in experiment [4] it was 19 nM.

As to `Cc1cc(-c2c(-c3cccc(C#N)c3)nn3ccc(C(=O)NCC4(C)CCC(=O)N4)nc23)cc(C)n1` (centres unmarked) [Example 92.16], the Ki in experiment [1] is > 1000 nM; in experiment [2], 0.7 nM; in experiment [3], 232 nM; in experiment [4], 59 nM.

Consider `Cc1cc(-c2c(-c3cccc(C#N)c3)nn3ccc(C(=O)NCC4(C)NC(=O)NC4=O)nc23)cc(C)n1` (centres unmarked) [Example 92.17], for which the Ki was > 1000 nM in experiment [1], 1.1 nM in experiment [2], 246 nM in experiment [3] and 28 nM in experiment [4].

On to `Cc1cc(-c2c(-c3cccc(C#N)c3)nn3ccc(C(=O)NCC4(C)CCC(=O)NC4)nc23)cc(C)n1` (centres unmarked) [Example 92.18], for which the Ki in experiment [1] is > 1000 nM; in experiment [2], 0.7 nM; in experiment [3], 28 nM; in experiment [4], 51 nM.

Consider `Cc1cc(-c2c(-c3cccc(C#N)c3)nn3ccc(C(=O)NCC4CCC(=O)NC4)nc23)cc(C)n1` (centres unmarked) [Example 92.19], for which the Ki in experiment [1] was > 1000 nM; in experiment [2], 19.2 nM; in experiment [3] it was 179 nM; in experiment [4], 115 nM.

In the case of `Cc1cc(-c2c(-c3cccc(C#N)c3)nn3ccc(C(=O)N[C@H]4C[C@](C)(O)C4)nc23)cc(C)n1` [Example 92.20], the inhibitory constant (Ki) is > 1000 nM in experiment [1], 1.2 nM in experiment [2], 301 nM in experiment [3] and 37 nM in experiment [4].

As to `Cc1cc(-c2c(-c3cccc(C#N)c3)nn3ccc(C(=O)N[C@H]4CC[C@@](C)(O)CC4)nc23)cc(C)n1` [Example 92.23], the Ki in experiment [1] is > 1000 nM; in experiment [2], 3.4 nM; in experiment [3] it was 1120 nM; in experiment [4], 35 nM.

For `Cc1cc(-c2c(-c3cccc(C#N)c3)nn3ccc(C(=O)NC4CNC(=O)C4)nc23)cc(C)n1` (centres unmarked) [Example 92.25], the Ki in experiment [1] was > 1000 nM; in experiment [2] it was 5.4 nM; in experiment [3], 634 nM; in experiment [4], 69 nM.

For the compound `Cc1cc(-c2c(-c3cccc(C#N)c3)nn3ccc(C(=O)NCC4CNC(=O)C4)nc23)cc(C)n1` (centres unmarked) [Example 92.26], the Ki was > 1000 nM in experiment [1], 5.8 nM in experiment [2], 175 nM in experiment [3] and 22 nM in experiment [4].

On to `Cc1cc(-c2c(-c3cccc(C#N)c3)nn3ccc(C(=O)NC[C@H]4CNC(=O)C4)nc23)cc(C)n1` [Example 92.27], for which the inhibitory constant (Ki) is > 1000 nM in experiment [1], 6.6 nM in experiment [2], 210 nM in experiment [3] and 16 nM in experiment [4].

For `Cc1cc(-c2c(-c3cccc(C#N)c3)nn3ccc(C(=O)NC[C@@H]4CNC(=O)C4)nc23)cc(C)n1` [Example 92.28], the Ki in experiment [1] is > 1000 nM; in experiment [2], 3.2 nM; in experiment [3] it was 345 nM; in experiment [4] it was 64 nM.

For `Cc1cc(-c2c(-c3cccc(C#N)c3)nn3ccc(C(=O)N[C@H]4COC[C@@H]4O)nc23)cc(C)n1` [Example 92.29], the Ki was > 1000 nM in experiment [1], 1.9 nM in experiment [2], 412 nM in experiment [3] and 34 nM in experiment [4].

For `Cc1cc(-c2c(-c3cccc(C#N)c3)nn3ccc(C(=O)N[C@@H]4COC[C@@H]4O)nc23)cc(C)n1` [Example 92.30], the Ki is > 1000 nM in experiment [1], 0.8 nM in experiment [2], 361 nM in experiment [3] and 36 nM in experiment [4].

In the case of `Cc1cc(-c2c(-c3cccc(C#N)c3)nn3ccc(C(=O)N[C@@H]4COC[C@H]4O)nc23)cc(C)n1` [Example 92.31], the inhibition constant Ki in experiment [1] was > 1000 nM; in experiment [2] it was 2.1 nM; in experiment [3], 333 nM; in experiment [4], 57 nM.

As for `Cc1cc(-c2c(-c3cccc(C#N)c3)nn3ccc(C(=O)N[C@@H]4CN(C)C[C@H]4O)nc23)cc(C)n1` [Example 92.32], the Ki is > 1000 nM in experiment [1], 2.9 nM in experiment [2], 459 nM in experiment [3] and 24 nM in experiment [4].

As to `Cc1cc(-c2c(-c3cccc(C#N)c3)nn3ccc(C(=O)NC[C@@H]4CCC(=O)N4)nc23)cc(C)n1` [Example 92.33], the Ki in experiment [1] was > 1000 nM; in experiment [2], 13 nM; in experiment [3] it was 652 nM; in experiment [4], 57 nM.

`Cc1cc(-c2c(-c3cccc(C#N)c3)nn3ccc(NC(=O)[C@](C)(O)C(F)(F)F)nc23)cc(C)n1` [Example 94.3, (2S)—N-[2-(3-Cyanophenyl)-3-(2,6-dimethyl-4-pyridyl)pyrazolo[1,5-a]pyrimidin-5-yl]-3,3,3-trifluoro-2-hydroxy-2-methyl-propanamide]: the Ki was > 1000 nM in experiment [1], 2 nM in experiment [2], 184 nM in experiment [3] and 15 nM in experiment [4].

Regarding `Cc1cc(-c2c(-c3cccc(C#N)c3)nn3ccc(NC(=O)C(C)(C)C)nc23)cc(Cl)n1` [Example 95, N-[3-(2-Chloro-6-methyl-4-pyridyl)-2-(3-cyanophenyl)pyrazolo[1,5-a]pyrimidin-5-yl]-2,2-dimethyl-propanamide], the Ki in experiment [1] was > 1000 nM; in experiment [2] it was 2.7 nM; in experiment [3] it was 146 nM; in experiment [4], 31 nM.

With `C=C(C)[C@H](C)NC(=O)c1ccn2nc(-c3cccc(C#N)c3)c(-c3cc(C)nc(C)c3)c2n1` [Example 99, 2-(3-Cyanophenyl)-N-[(1S)-1,2-dimethylallyl]-3-(2,6-dimethyl-4-pyridyl)pyrazolo[1,5-a]pyrimidine-5-carboxamide], the Ki in experiment [1] is > 1000 nM; in experiment [2], 0.4 nM; in experiment [3] it was 99 nM; in experiment [4], 35 nM.

On to `Cc1cc(-c2c(-c3cccc(C#N)c3)nn3ccc(C(=O)N[C@@H](C)C(C)(C)O)nc23)cc(CO)n1` [Example 100, 2-(3-Cyanophenyl)-N-[(1S)-2-hydroxy-1,2-dimethyl-propyl]-3-[2-(hydroxymethyl)-6-methyl-4-pyridyl]pyrazolo[1,5-a]pyrimidine-5-carboxamide], for which the Ki in experiment [1] was > 1000 nM; in experiment [2] it was 0.4 nM; in experiment [3], 64 nM; in experiment [4], 28 nM.

As to `Cc1cc(-c2c(-c3cccc(C#N)c3)nn3ccc(C(=O)NCC4(C)NC(=O)NC4=O)nc23)c(F)c(C)n1` (centres unmarked) [Example 101, 2-(3-Cyanophenyl)-3-(3-fluoro-2,6-dimethyl-4-pyridyl)-N-[(4-methyl-2,5-dioxo-imidazolidin-4-yl)methyl]pyrazolo[1,5-a]pyrimidine-5-carboxamide], the Ki in experiment [1] was > 1000 nM; in experiment [2], 5 nM; in experiment [3] it was 1510 nM; in experiment [4], 13 nM.

For `Cc1cc(-c2c(-c3cccc(C#N)c3)nn3ccc(C(=O)NCC(C)(C)O)nc23)c(F)c(C)n1` [Example 101.1, 2-(3-Cyanophenyl)-3-(3-fluoro-2,6-dimethyl-4-pyridyl)-N-(2-hydroxy-2-methyl-propyl)pyrazolo[1,5-a]pyrimidine-5-carboxamide], the Ki in experiment [1] is > 1000 nM; in experiment [2], 4.3 nM; in experiment [3], 1240 nM; in experiment [4], 38 nM.

What is called Ki is the dissociation constant of the complex between target and ligand, obtained from inhibition or displacement. Low values mean higher affinity, high ones lower affinity.
